Experimental data published in patent US20100299770A1, “TARGETED CELL DEATH” (priority 2007, published 2010).

Key:
[1] = system: primary oligodendrocyte cultures; experiment: CID-induced cell death in iCP9 virus-transduced primary oligodendrocyte cultures; assay type: cell-based, rat; conditions: CID 10 nM; cultures stably expressing iCP9; fluorescent microscope and Methylene Blue viability staining
Procedure: 293T cells were transfected with the pΔmbpICP9/mEGFP vector along with plasmids encoding the gag-pol and RD114 envelope protein using lipofectamine (Invitrogen, Carlsbad, Calif.). Forty-eight hours after transfection viral supernatant were harvested and either directly applied to target cells or snap frozen and stored at -80° C.
To induce timely cell death. Collected virus was used to transduce primary oligodendrocyte cultures that have been established. Cells were cultured and evaluated using fluorescent microscopy for the expression of GFP. The extent of GFP positive cells correlated with the viral infection efficacy. Cell protein isolation was conducted and protein isolates were subjected to Western blot transfer to detect stable expression of the iCP9 protein. The resultant membrane was probed with anti-caspase 9 antibody (R&D Systems Inc. #AF8301). Once the stable expression of iCP9 was confirmed at the protein level wan western mot techniques, the CID was applied to these cells in culture at a 10 nM concentration. […] Cell death was detected by viewing cultures under the fluorescent microscope and by using Methylene Blue (Sigma) viability staining of cells in culture after exposure to the CID. All experiments were run in parallel using the astrocyte-derived U87 cell line as a negative control.

[2] = system: CNS of adult rats; experiment: Animal model of CNS demyelination, virus applied to CNS of adult rats, CID intraperitoneal; assay type: in vivo, rat; conditions: CID via intraperitoneal injection at various times after virus
Procedure: The virus described above, pΔmbpICP9/mEGFP, which contains the inducible caspase 9 sequence was applied to the CNS of adult rats to create an in vivo model of CNS demyelination. Administration of the viral vector allowed effective transfer of genetic information in a variable area of parenchyma based on the rate of administration (convective distribution) and viral titer. […] First, adult Fischer rats were anaesthetized by intraperitoneal injection o f ketamine hydrocholoride (80 mg/kg) and xylazine ([…]) and placed in a sereotactic frame. A midline scalp incision is made. Access to brain parenchyma was accomplished by plaement of a right-sided burr hole through the skull, at various predetermined coordinates depending on the desired location of the lesion. […] The volume of viral vector (e.g., lentivirus) delivered depends upon the infection efficacy as determined herein and the target area size. After injection, the needle is left in place for five minutes and then slowly withdrawn over the next four minutes. The skin was closed with sutures.
For virus administration to the spinal cord an incision was made in the thoracic spine followed by a lamenectomy to expose the spinal cord. A No. 32S-gauge needle was passed into the posterior column at predetermined coordinates.

**Q.** Which results are given for `CC[C@H](C(=O)N1CCCC[C@H]1C(=O)O[C@H](CCc1ccc(OC)c(OC)c1)c1cccc(OCC(=O)NCC(CNC(=O)COc2cccc([C@@H](CCc3ccc(OC)c(OC)c3)OC(=O)[C@@H]3CCCCN3C(=O)[C@@H](CC)c3cc(OC)c(OC)c(OC)c3)c2)CN(C)C)c1)c1cc(OC)c(OC)c(OC)c1` [CID, AP20187]?
**A.** cell death of infected cells after CID [1]: induced the cellular death of infected cells; effect of CID on the infected region of the CNS [2]: apoptosis of the infected region of the CNS
